Test results reported in ChEMBL document CHEMBL4680278 (J Med Chem, 2020).
pEC50: −log10 of the molar value.

Target: G-protein coupled receptor 55 (Homo sapiens, UniProt Q9Y2T6)
Experiment: Activation of recombinant human GPR55 expressed in HEK293 cells assessed as increase in [35S]-GTPgammaS stimulation incubated for 60 min by scintillation counting method
Format: functional, cell-based

G-protein coupled receptor 55, sequence (Q9Y2T6 whole entry): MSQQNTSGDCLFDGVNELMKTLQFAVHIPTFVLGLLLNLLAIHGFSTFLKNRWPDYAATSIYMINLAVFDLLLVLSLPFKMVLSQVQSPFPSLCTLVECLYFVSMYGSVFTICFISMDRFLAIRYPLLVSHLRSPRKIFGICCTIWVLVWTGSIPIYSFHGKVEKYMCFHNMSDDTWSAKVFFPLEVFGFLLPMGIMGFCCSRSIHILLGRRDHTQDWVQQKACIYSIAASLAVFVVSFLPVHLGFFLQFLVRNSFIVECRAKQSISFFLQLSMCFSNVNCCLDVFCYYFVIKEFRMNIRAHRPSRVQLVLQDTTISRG

| Compound | pEC50 |
| --- | --- |
| C=C(C)[C@@H]1CCC(C)=C[C@H]1c1c(C)cc(O)cc1O | 8.70 |
| C=C(C)[C@@H]1CCC(C)=C[C@H]1c1c(O)cc(O)cc1CCCCC | 8.70 |
